Results taken from patent US4056625A, “Pesticidal compositions containing benzodioxole derivatives and methods of combating pests” (priority 1972, dated 1977).
In brackets after ≈: the same amount, converted by molar mass.

Legend:
[1] = test system: 2nd stage nymph of the German cockroach (Blattella germanica); test: LC50 against German cockroach nymphs in treated glass tubes (Example 69); type: in vivo
Description: Compounds 2 and 4 and also 2,2-dimethyl-1,3- benzodioxol-4-yl N-methylcarbamate(compound 5) and 2,2-dimethyl-1,3-benzodioxol-4-yl N-acetyl-N-methylcarbamate (compound 6) were tested for activity against the 2nd stage nymph of the German cockroach (Blattella germanica), of the order Orthoptera, by treating the walls of glass tubes (9.0 cm high × 4.5 cm diameter) with acetone solutions of the compounds and after the acetone had evaporated caging the insects in the tubes for 48 hours. The highest dosage rate employed was 50 mg/ft^2 (532 mg/m^2).
(§1) If complete kill was obtained at the highest dosage rate, the test was repeated using a logarithmically reducing dose regime until less than 50% mortality was recorded. The LC50 was then calculated from the line of best fit from the data plotted on log/provit analysis paper.
The LC50 values are abbreviated on a 0-6 scale where

[2] = test system: German cockroaches (Blattella germanica); test: Persistency against German cockroaches on treated glass plates (Example 74); type: in vivo; conditions: 100 mg/ft^2 (1.065 g/m^2), 2nd stage nymphs, 7 day intervals until less than 50% mortality
Description: Persistency was measured against German cockroaches (Blattella germanica), or the order Orthoptera, by treating glass plates with acetone solutions of the compunds listed below to produce a deposit equivalent to 100 mg/ft^2 (1.065 g/m^2), and caging 2nd stage nymph cockroaches on these surfaces for 48 hours at 7 day intervals until less than 50% mortality was recorded.

[3] = test system: larvae of the sheep maggot fly (Lucilia sericata); test: LC50 against sheep maggot fly larvae on dental rolls (Example 71); type: in vivo; conditions: for LC50: Lucilia sericata, 24 h, read-out: LC50 value
Description: as §1
(§2) Similarly LC50 values were obtained against various pests as described in Examples 70-73 where, however, the LC50 values are abbreviated on a 0-6 scale where
Similarly, LC50 values were obtained for each of Compounds 1, 2, 3, 4, 5 and 6 against larvae of the sheep maggot fly (Lucilia sericata), of the order Diptera. The tests were carried out by placing newly hatched larvae on dental rolls contained in glass vials and soaked with 1 ml of blood serum containing the compound. The mortality was assessed after 24 hours. The highest dosage rate employed was 1000 ppm.

[4] = test system: adult female houseflies (Musca domestica); test: LC50 against adult female houseflies on filter papers (Example 70); type: in vivo; conditions: for LC50 value: adult female houseflies, 24 hours, 0-6 scale (mg/ft^2); for activity against houseflies (in words): compared with compound 5
Description: as §1, §2
LC50 values were obtained for each of Compounds 1, 2, 3, 4, 5 and 6 against adult female houseflies (Musca domestica), of the order Diptera. The tests were carried out by adding acetone solutions of the compounds to 9 cm diameter filter papers in the base of 9 cm diameter crystallising dishes, placing the houseflies in the dishes after the acetone had evaporated, closing the dishes with Petri dish lids and counting the mortality after 24 hours. The highest dosage rate employed was 1000 mg/ft^2 (10.65 g/m^2).

[5] = Acute oral LD50 to mice (Example 76); set-up: species or system mouse (Carshalton CFW strain); conditions: in vivo, mouse, by stomach tube in 0.4% tragacanth, up to 5 days
Description: (§3) Mammalian toxicity was assessed by measuring the acute oral LD50 to rats and mice. Componds were dissolved or suspended in a 0.4% tragacanth solution and administered by stomach tube to the test animal. The mice used were 10 to 15 g weanlings of the Carshalton CFW strain whilst the rats were 30 to 40 g weanlings of Wystar strain. Three replicates per dosage rate were employed and the mortality was recorded daily for up to 5 days. The LD50 values were calculated as for those for insecticidal and acaricidal activity above.

[6] = test system: sheep maggot fly (Lucila sericata); test: Persistency on sheep against sheep maggot fly; type: in vivo; conditions: compared with compound 5
[7] = test system: adult red spider mites (Tetranychus telarius); test: LC50 against adult red spider mites on sprayed French beans (Example 73); type: in vivo; conditions: 48 h, read-out: LC50 value
Description: as §1, §2
Similarly, LC50 values were obtained for each of Compounds 1, 2, 4, 5 and 6 against adult red spider mites (Tetranychus telarius), of the order Acarina. The tests were carried out by spraying infected French beans with a 50% acetone water solution of the compound, containing 500 ppm of Lissapol NX as a wetting agent, and recording the mortality after 48 hours. The highest dosage rate employed was 1000 ppm which is equivalent to 10 lb/acre (11.20 kg/ha).

Solubility = type: physicochemical; conditions: compared with compound 5
[8] = test system: larvae of the cattle tick (Boophilus microplus); test: LC50 against cattle tick larvae (Example 72); type: in vivo; conditions: Rhipicephalus microplus, 24 hours, 0-6 scale (ppm)
Description: as §1, §2
Similarly, LC50 values were obtained for each of Compounds 2 and 4 against larvae of the cattle tick (Boophilus microplus), of the order Acarina. The tests were carried out evaporating 1 ml of an acetone solution of the compound on 9 cm diameter filter papers, folding the papers twice in half after drying to give quadrant shaped packets and sealing the tick larvae therein for 24 hours by means of a paper clip. The highest dosage rate employed was 1000 ppm.

rats and mice = test: Mammalian toxicity (overall comparison); type: in vivo; conditions: compared with compound 5
Description: as §3

[9] = test system: adult female houseflies (Musca domestica); test: Housefly mortality on treated filter papers (Examples 32-40); type: in vivo; conditions: 100 milligrams per square foot, after 24 hours
Source text: 9 centimeter diameter filter papers treated with aqueous acetone solutions of each of the compounds
at rates equivalent to 100 milligrams per square foot (100 mgm./0.09 m^2.) of active ingredient were placed in 9 centimeter diameter Petri dishes. Batches of adult female houseflies (Musca domestica) lightly anaesthetised with carbon dioxide were then introduced into the dishes and a glass lid placed over each.

[10] = Acute oral LD50 to rats (Example 76); type: in vivo, rat (Wystar strain); conditions: in vivo, po; rat male, by stomach tube in 0.4% tragacanth, up to 5 days
Description: as §3

rats = test: Acute oral LD50 to rats (Example 76); type: in vivo, rat (Wystar strain); conditions: rat female, by stomach tube in 0.4% tragacanth, up to 5 days
Description: as §3

[11] = test system: yellow fever mosquito (Aedes aegypti); test: Persistency against yellow fever mosquito on treated glass plates (Example 75); type: in vivo; conditions: 100 mg/ft^2 (1.065 g/m^2), adult female mosquitos, 7 day intervals until less than 50% mortality
Description: Persistency was measured against yellow fever mosquito (Aedes aegypti), of the order Diptera, by treating glass plates with acetone solutions of the compounds listed below to produce a deposit equivalent to 100 mg/ft^2 (1.065 g/m^2), and caging adult female mosquitos on these surfaces for 24 hours at 7 day intervals until less than 50% mortality was recorded.

Structure (SMILES)	LC50 value ([1]; 2nd stage nymph German cockroach, 48 hours, 0-6 scale)	activity against cockroaches (in words) ([1]; cockroaches)	Persistency [2] [days]	LC50 [3] [µg/mL]	activity against sheep maggot fly (in words) ([3]; compared with compound 5)	LC50 value [4]	activity against houseflies (in words) [4]	LD50 at 120 h [5] [mg/kg]	persistency on sheep against sheep maggot fly (in words) [6]	LC50 [7] [µg/mL]	solubility in organic solvents (in words) (Solubility)	LC50 [8] [µg/mL]	mammalian toxicity (in words) (rats and mice)	mortality of houseflies [9]	LD50 at 120 h [10] [mg/kg]	Acute oral LD50, rat female (rats) [mg/kg body wt.]	Persistency [11] [days]
CCC(=O)N(C)C(=O)Oc1cccc2c1OC(C)(C)O2 [Compound 2, 2,2-dimethyl-1,3-benzodioxol-4-yl N-propionyl-N-methylcarbamate]	6 (<0.5 mg/ft^2 (<5.3 mg/m^2))	outstandingly good activity against cockroaches	21 to 28	3 to 9 (≈ 10.7 to 32.2 µM)	as active as compound 5 against sheep maggot fly	5 (3-9 mg/ft^2 (32-106 mg/m^2))	as good or better activity against houseflies than does compound 5	280	much better persistency on sheep	300 to 1000 (≈ 1070 to 3580 µM)	higher solubility in organic solvents than is compound 5	3 to 9 (≈ 10.7 to 32.2 µM)	lower mammalian toxicity than does compound 5	–	–	–	–
CC(=O)N(C)C(=O)Oc1cccc2c1OCO2 [Compound 1, 1,3-benzodioxol-4-yl N-acetyl-N-methylcarbamate]	–	–	–	30 to 99 (≈ 126 to 417 µM)	–	5 (3-9 mg/ft^2 (32-106 mg/m^2))	as good or better activity against houseflies than does compound 5	> 4000	–	100 to 299 (≈ 422 to 1260 µM)	higher solubility in organic solvents than is compound 5	–	lower mammalian toxicity than does compound 5	all found to be dead	> 1000	> 1000	35
